Source: patent publication US20100292205A1, “Pyrimidone Compounds As GSK-3 Inhibitors” (PFIZER INC., priority 2006, published 2010)
Like-named read-outs stand apart in the source and are kept apart here. One block for each compound: values may come before it.

Target: T1, Recombinant human GSK3β (Homo sapiens, UniProt P49841)
T1 construct: His-tag; made in house; host or cells: Sf9 insect cells / baculovirus
Assay: GSK-3β (Glycogen Synthase Kinase) cell free enzyme assay
Type: biochemical
Settings: for IC50: cell free enzyme assay; for inhibition at 1 µM: read-out: Percent inhibition at 1 μM
Method in brief: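 This cell-free kinase assay measured [33P] transfer from [33P]ATP gamma phosphate into the biotinylated peptide bio-LC-S-R-H-S-S-P-H-Q-pS-E-D-E-E-E-OH. After 60 min at RT, reactions were stopped with 0.66 volume of PBS lacking Ca or Mg containing 12.5 mM EDTA, 0.25% Triton-X 100, 125 uM ATP and 6.2 mg/ml streptavidin SPA beads. Bead-bound radioactivity was counted as CPM on a Trilux scintillation counter.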

T1 sequence (P49841 whole entry): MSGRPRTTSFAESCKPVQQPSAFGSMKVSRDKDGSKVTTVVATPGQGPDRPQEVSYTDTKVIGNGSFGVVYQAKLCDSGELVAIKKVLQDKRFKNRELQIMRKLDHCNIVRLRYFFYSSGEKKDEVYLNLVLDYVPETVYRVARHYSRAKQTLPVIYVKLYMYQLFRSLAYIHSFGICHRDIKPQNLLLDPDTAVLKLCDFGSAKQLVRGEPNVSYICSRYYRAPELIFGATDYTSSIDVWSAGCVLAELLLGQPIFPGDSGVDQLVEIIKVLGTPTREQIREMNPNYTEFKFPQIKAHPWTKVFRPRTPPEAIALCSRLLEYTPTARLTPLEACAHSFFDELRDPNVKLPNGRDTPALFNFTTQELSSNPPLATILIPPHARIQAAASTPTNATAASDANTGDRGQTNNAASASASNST

IC50 (Examples 265-291): 126 nM
Compound: CN(c1nc(-c2ccncc2F)cc(=O)n1C)[C@H]1[C@@H]2CN(c3nc(C(F)(F)F)c(C(=O)OCc4ccccc4)s3)C[C@@H]21 [Example 268, Benzyl 2-[(1R,5S,6s)-6-{[4-(3-fluoropyridin-4-yl)-1-methyl-6-oxo-1,6-dihydropyrimidin-2-yl](methyl)amino}-3-azabicyclo[3.1.0]hex-3-yl]-4-(trifluoromethyl)-1,3-thiazole-5-carboxylate]

IC50 (Examples 62-155): 56 nM
Compound: Cn1c(N[C@@H]2CN(C(=O)c3ccccc3)C[C@@H]2F)nc(-c2ccncc2)cc1=O [Example 68, 2-{[(3R,4S)-1-Benzoyl-4-fluoropyrrolidin-3-yl]amino}-3-methyl-6-pyridin-4-ylpyrimidin-4(3H)-one]

inhibition at 1 µM (GSK-3β cell free enzyme assay, Examples 42-60): 75%
Compound: CC(=O)N1C[C@@H]2[C@H](C1)[C@H]2Nc1nc(-c2ccncc2)cc(=O)n1C [Example 49, 2-{[(1R,5S,6s)-3-Acetyl-3-azabicyclo[3.1.0]hex-6-yl]amino}-3-methyl-6-pyridin-4-ylpyrimidin-4(3H)-one]

inhibition at 1 µM (Examples 157-199): 74%
Compound: Cn1c(N[C@H]2CN(S(C)(=O)=O)C[C@@H]2F)nc(-c2ccncc2)cc1=O [Example 158, 2-{[(3S,4S)-4-Fluoro-1-(methylsulfonyl)pyrrolidin-3-yl]amino}-3-methyl-6-pyridin-4-ylpyrimidin-4(3H)-one]
